Data set [1] relates to scarred and blocked fallopian tubes. Description: Example 2: fallopian tube stenosis-infertility. It counts as in vivo, human. The note with it: BAPN-coated silastic tube stint; four to six week healing phase. An excerpt:
A patient having scarred and blocked fallopian tubes as a result of infection has incisions made in the scar tissue and a BAPN- coated silastic tube stint placed in the fallopian tube after one week and left in place during the healing phase. The stint is continuously maintained in contact with the fresh wound and is changed two or three times during the four to six week healing phase as the lathyrogenic agent leaches off the surface of the silastic stint and is incorporated into the newly healing scar. The newly formed scar takes the shape of the stint.

Data set [2] relates to skin and other surrounding tissues. The note with it: cited from earlier work.
In data set [3] the test system is collagen crosslinking. The note with it: cited from earlier work.
Data set [4] in a line: Decomposition of BAPN in ointment, gels or solutions. Type of data set: physicochemical. The note with it: decomposition into ammonia, aminonitrile and CO2.
The conditions of data set [5]: systemic administration, humans; cited from earlier work.
Data set [6] deals with peritendinous, perineural adhesions. Description: Clinical effect of topically applied BAPN-F gauze. The note with it: 20-40 mg BAPN-F per 100 cm^2 of gauze, placed wet over the lesions. It counts as in vivo. An excerpt: In order to obtain long shelf life of BAPN medications the drug should be kept dry and out of contact with water. For this reason administration of BAPN as an ointment, in gels or solutions is rather impractical, as the medication has to be freshly prepared every 6-8 weeks. 6-8 weeks is the time of detection of the first decomposition product of BAPN into ammonia, aminonitrile and CO2. This invention can overcome the above problem by incorporating a solution with the known concentration of BAPN into the dressing material (gauze, collagen sponge) with a known surface area. The dressing material may be soaked with a known volume of BAPN solution, frozen and freeze dried to complete dryness.

The test system of data set [7] is tracheal injury. Description: Example 10: trachea. Type of data set: in vivo, human. Particulars: silastic stint coated with 5.0 mM BAPN-F or D-Penicillamine; five or six weeks. The method, then:
The patient suffering tracheal injury either due to a tracheostomy on an emergency basis or secondary to an automobile accident has primary anastomosis of the trachea resulting in a severe scar and impairment of the airway. The scar is excised and an endotracheal silastic stint coated with 5.0 mM BAPN-F or D-Penicillamine is put in place after one week and continuously maintained and changed on a weekly basis for five or six weeks during the healing phase. The lathyrogen is incorporated in the newly formed and healing wound where it allows the newly formed scar to be soft, plastic-like and conform to the diameter of the endotracheal stint.

For data set [8], the system named is urethral stenosis. Briefly: Example 7: urethra-infection. It counts as in vivo, human. The note with it: BAPN-F bonded silicone catheter; about six weeks. The source says:
The old scar in the urethra is opened under direct surgical resection. Immediately afterward a silicone urethral bladder catheter is inserted. After one week, this catheter is exchanged for one with the lathyrogenic agent BAPN-F bonded onto its surface. The coated catheter is continuously maintained in place and changed ever week for about six weeks during the healing phase. During the healing phase new scar tissue is laid down. However, its strength is beneficially altered by the lathyrogen BAPN-F which inhibits the bonding of one protein scar fiber to the next protein scar fiber allowing the wound to be molded in the shape of the intraluminal stint (urinary bladder catheter).

In data set [9] the test system is full thickness dermal scar around the elbow. Description: Example 1: burn scar-elbow. It counts as in vivo, human. The note with it: 5.0 mM BAPN-F and/or 20-25 mM D-penicillamine jelly or BAPN-F gauze (40 mg/100 cm^2); four to six weeks. How it is done:
This restricts use. The hard scar is surgically "released" under general anesthesia by cutting in several places with or without a skin graft. The patient then has a lathyrogen applied and is placed in an elbow dynamic splint. This allows the elbow to be protected and at the same time to fully exercise the joint on a daily basis with or without the supervision of a physical therapist.
A lathyrogen jelly with 5.0 mM of BAPN-F and/or 20-25 mM D-penicillamine or a BAPN-F ]impregnated gauze (40 mg/100 cm^2 of gauze) is continuously applied to the wound during its healing phase beginning 4-8 days after surgical treatment and continued for four to six weeks in combination with physical therapy.

Data set [10] concerns circumferential suture line scar of bladder and urethra. Briefly: Example 4: urethra-prostatic cancer. Type of data set: in vivo, human. The note with it: silicone catheter coated with 5.0 mM BAPN-F; three weeks. How it is done: A patient with prostatic cancer detected with sonography and a candidate for total prostatectomy has the prostate removed and the cuff of the bladder sewn to the most proximal remaining portion of the urethra. This circumferential suture line often progresses to heavy scarring preventing complete emptying of the bladder. The scar is cut away under anesthesia and direct resectoscope vision and immediately stinted with a silicone catheter coated with 5.0 mM BAPN-F. The catheter remains in continuous direct contact with the new wound tissue during healing. The BAPN-F leaches from the surface of the catheter, thereby inhibiting hardening of the healing scar during the next three weeks. The catheter is changed on a weekly basis to renew the BAPN-F supply.

The subject of data set [11] is common bile duct stenosis. Description: Example 11: common bile duct stenosis. It counts as in vivo, human. The note with it: BAPN-F coated silastic tube; six weeks. The source says:
The scar is partially resected and after one week an original silastic stint is exchanged for an intraluminal silastic tube coated with BAPN-F with one arm of the tube protruding into the duodenum. The BAPN-F leaches off the silastic tube and is incorporated into the newly formed scar, which is soft because BAPN-F blocks cross-linking. The tube is continuously maintained in place and on a weekly basis the patient returns to the gastroenterology lab where, under direct manipulation, the tube is exchanged every week for six weeks. Once healing is complete the tube is removed and the new lumen of the common bile duct is preserved. The patient is no longer jaundiced and fluids from the liver can pass into the duodenum uninhibited.

For data set [12], the system named is full thickness burn of the hand. Briefly: Example 5: burn scar-hand. It counts as in vivo, human. The note with it: jelly containing 5 mM/L BAPN-F; four to six weeks. How it is done:
A patient with a well healed full thickness burn of the hand has severe scarring of the fingers and hand in a claw-like form. The old scars are surgically released to create full mobility of the joints. The hand is placed in a "dynamic splint." The splint contains rubber band fixation to a rigid frame allowing the patient to exercise their fingers through a full range of motion. During the healing phase and on a daily basis, a jelly containing 5 mM/L of the lathyrogenic agent BAPN-F is continuously applied to the surgically "released" areas. The patient continues to exercise and use the dynamic splint during the healing phase over the next four to six weeks. […] The dynamic splint is removed. Healing is complete and range of motion restored.

The subject of data set [13] is transection of the membranous urethra. Description: Example 8: urethra-trauma. It counts as in vivo, human males. Particulars: coated silicone catheter; about six weeks. The source says: Following fractured hips, 5-10% of human males suffer transection of the membranous urethra as it leaves the bladder. This transection requires primary anastamosis with catheter stinting, often resulting in severe scar formation and secondary bladder outlet obstruction. Balloon dilation (pressure balloon) to create new wound tissue may be performed or direct surgical resection removes the narrowed scar tissue. After one week, the original bladder catheter is exchanged for a silicone catheter coated with either BAPN-F or another lathyrogenic agent such as D-Penicillamine, which inhibits cross-linking (strong bonding) between scar collagen fibers. The coated catheter is continuously maintained in place and changed once a week for about six weeks during the healing phase.

Data set [14] deals with burns in the esophagus. Particulars: dogs, cited from earlier work.
For data set [15] the following is noted: rabbit, in vivo. How it is done: This example illustrates the efficacy of collagen- resorcinol-glutaraldehyde polymer as a BAPN-F delivery system. One hundred parts of medical grade purity collagen, prepared by a known procedure, is mixed with three hundred parts of water and heated until collagen dissolves to form a viscous solution. […] One milliliter of this mixture per kilogram of rabbit body weight was injected under the skin, after quick mixing of the appropriate volume of the mixture with 1/10 of its volume of 3 percent glutaraldehyde in a 5 ml plastic syringe. […] The rate of the release of the BAPN-F from the polymer was studied by direct measuring of the amount of BAPN-F in the blood, collected from the ear vein of the rabbit at time intervals shown in Table 1.
For comparison, the same amount of BAPN-F was injected under the skin of control rabbits as water solution.

Counter-ions that a name gives are not always drawn. Like-named read-outs stand apart in the source and are kept apart here.

The values below come from patent US5120322A, “Method and apparatus for treatment of fibrotic lesions” (Lathrotec, Inc., priority 1990, dated 1992).

For the compound `N#CCCN` [BAPN, Beta-aminopropionitrile], the “opening of the fallopian tube” value in [1] was “the opening of the fallopian tube is preserved and egg and sperm transport can now cross the previously blocked fallopian tube”. For the same compound, the “penetration of skin and other surrounding tissues (thickness)” value in data set [2] is given as “a few millimeters in thickness”. Besides, the inhibition of crosslinking result in data set [3] is listed as “crosslinking can be inhibited”. The “time of detection of the first decomposition product” value in [4] was 6-8 weeks. Also, the “systemic tolerance (therapeutic vs. toxic concentrations)” value in data set [5] is “therapeutic and toxic concentrations are so close that they cannot be systemically tolerated by humans”.
In the case of `N#CCCN` [BAPN-F, Beta-aminopropionitrile fumarate], the “clinical effect on fibrotic adhesions” value in data set [6] was “evident clinical effect of a topically applied gauze-placed wet over the lesions, such as peritendinous, perineural adhesions with prevention or reduction of the incidence of fibrotic adhesions”. Besides, the “scarring and airway dynamics” value in data set [7] was “no further scarring takes place, the medication and stint is discontinued and the patient returns to normal airway dynamics”. The “urination after stint removal” value in [8] is given as “normal unobstructed urination can proceed”. In addition, in [9], the “range of motion at the elbow” value is reported as “the patient resumes full range of motion at the elbow”. Moreover, the “scarring of bladder-urethra suture line” value in data set [10] is given as “no new scarring takes place”. In addition, in [11], the “lumen of the common bile duct, jaundice” value is “the new lumen of the common bile duct is preserved. The patient is no longer jaundiced”. For the same compound, the “range of hand motion” value in data set [12] is listed as “full range of motion without further restriction of hand motion”. In addition, in [13], the “opening after catheter removal” value is given as “a normal sized opening is present”. Also, the “ingestion of food during treatment” value in data set [14] (esophageal burns) is recorded as “severe problems in the ingestion of food”. For the same compound, the toxicity entry in data set [14] (systemically introduced) is reported as “serious toxicity problems”.
Turning to `CC(C)(S)[C@@H](N)C(=O)O` [D-Penicillamine], the “scarring and airway dynamics” value in data set [7] was “no further scarring takes place, the medication and stint is discontinued and the patient returns to normal airway dynamics”. Also, the “range of motion at the elbow” value in data set [9] is reported as “the patient resumes full range of motion at the elbow”. Besides, in data set [13], the “opening after catheter removal” value is “a normal sized opening is present”. Further, the inhibition of crosslinking entry in [3] is given as “crosslinking can be inhibited”. Also, in data set [5], the “systemic tolerance (therapeutic vs. toxic concentrations)” value is “therapeutic and toxic concentrations are so close that they cannot be systemically tolerated by humans”.
As for Water, the “time to maximum in serum” value in [15] is listed as “reaches a maximum in serum within two hours after injection”. Also, the “Plasma Level (BAPN-F)” value in data set [15] (120 min) came to 3.2; in data set [15] (240 min), 2.9; in data set [15] (360 min) it was 2.1; in [15] (600 min), 1.0; in [15] (960 min), 0.1; in [15] (2880 min), 0. For the same compound, the “Plasma Level (BAPN-F)” value in [15] (4320 min), in [15] (5760 min) and in data set [15] (10080 min) was 0 each time.
